Values after ≈ are worked out from the molar mass of the structure shown.
Key:
[1] = test system: C. neoformans var grubii, KN99; test: Inhibition of C. neoformans growth, limiting dilution assay (MIC); format: cell-based; conditions: for MIC80 / MIC: Cryptococcus neoformans; for MIC80: KN99α, minimal concentration inhibiting 80% of growth relative to vehicle; for inhibition of C. neoformans growth: YNB-02+1% DMSO at 35° C., at 15 and 60 μM
Procedure: Strains and media. All inhibition assays were performed with C. neoformans var grubii, KN99 (serotype A, MATα; kindly provided by Jennifer Lodge). Two clinical strains of C. neoformans var grubii, serotype A, were kindly provided by Tamara Doering and Andre Spec. […] Each assay was done in triplicate and all values are the average of two or more independent assays. The data are presented as the average cell density as a percent of DMSO-only treated cells. […] However, these conditions are unlike conditions encountered by C. neoformans in mammalian infections, where nutrients are limited, and the pH and temperature are higher than in YPD media. The cryptococcal stress response to low glucose and high pH and temperature may alter its susceptibility to the inhibitors. It is also possible that the enzymes targeted by the inhibitors may render the cell temperature sensitive when inhibited. To better mimic growth in mammals, growth was tested without shaking in nutrient-limited media at 35° C. […] However, as the nutrient-limited media and higher temperature is more similar to mammalian cell growth conditions, these conditions were used for all further assays. […] All values were measured at least two times in independent experiments and the average MIC is reported.

[2] = Cytotoxicity in hepatoma cells (MTS); conditions: human, HepDES19 cells, CC50, HepDES19 cells, 72 hours, MTS
Procedure: HepDES19 cells (1.0×10^4 cells per well) were seeded in 96-well plates and incubated in DMEM with 10% fetal bovine serum (FBS) plus 1% penicillin and streptomycin, 1% nonessential amino acids, and 1% glutamine. The compounds were diluted in the medium at concentrations ranging from 0.78 to 100 μM plus 1% DMSO and added to the cells 48 hours after plating, with each concentration tested in triplicate. Cells were incubated with the compound for 72 hours and cytotoxicity was measured using a mitochondrial metabolic assay with MTS (Promega). The data were transformed to log[inhibitor] and fit to a 4-variable slope curve using GraphPad Prism (v6, www.graphpad.com).
Three days later, the MTS reagent was added for 90 minutes prior to terminating the incubation period and reading the OD480.

KN99α cells [3] = test: Growth inhibition in YPD+1% DMSO at 25° C.; format: cell-based, C. neoformans; conditions: at 60 μM
Procedure: FIGS. 5A & 5B. Inhibition of KN99α cells by β-thujaplicinol and β-thujaplicin under conditions (FIG. 5A) YPD at 25° C. and (FIG. 5B) YNB-02 at 35° C.
An assay was developed that could cheaply and reproducibly measure inhibition of C. neoformans growth using a 96-well format. C. neoformans growth was initially tested in YPD versus YPD+1% DMSO at 25° C. with shaking for 24 and 48 hours. […] However, these conditions are unlike conditions encountered by C. neoformans in mammalian infections, where nutrients are limited, and the pH and temperature are higher than in YPD media. The cryptococcal stress response to low glucose and high pH and temperature may alter its susceptibility to the inhibitors. It is also possible that the enzymes targeted by the inhibitors may render the cell temperature sensitive when inhibited. To better mimic growth in mammals, growth was tested without shaking in nutrient-limited media at 35° C. First, the cell culture media, RPMI-1640+0.4% glucose+1% DMSO (Sigma) as defined by National Committee for Clinical Laboratory Standards (NCCLS) was tested for anti-fungal susceptibility testing. However, the cells grew very poorly under these conditions. […] (FIG. 5A). However, as the nutrient-limited media and higher temperature is more similar to mammalian cell growth conditions, these conditions were used for all further assays.

C. neoformans = test: Fungicidal assay; format: cell-based; conditions: 48 hours exposure at 2×, 4× and 8× the MIC, spotted, 30° C. for 2 days
Procedure: To test for fungicidal activity, aliquots of cells were removed after 48 hours of growth in the presence of test compounds at 2×, 4×, and 8× the respective MICs and spotted them on YPD plates. The plates were incubated at 30° C. for 2 days and checked for growth. Growth of cells treated with test compounds was compared to FLC-treated cells, which is known to be fungistatic and to AMB-treated cells, which is known to be fungicidal (Klepser, et al., 1998; Mesa-Arango, et al., 2014).
compounds #54 and #284 were evaluated for fungicidal versus fungistatic activity. This analysis was done in a qualitative assay in parallel with FLC, which is known to be fungistatic (Klepser, et al., 1998) and AMB, which is known to be fungicidal (Mesa-Arango, et al., 2014). The MICs were 3 μM (0.9 μg/mL), 1.5 μM (1.4 μg/mL), 12 μM and 0.31 μM for FLC, AMB, #54 and #284 respectively. (FIGS. 8A & 8B).

[4] = test system: clinical strains of C. neoformans var grubii, serotype A; test: MIC in two independent clinical strains; format: cell-based; conditions: Cryptococcus neoformans
Procedure: Strains and media. All inhibition assays were performed with C. neoformans var grubii, KN99 (serotype A, MATα; kindly provided by Jennifer Lodge). Two clinical strains of C. neoformans var grubii, serotype A, were kindly provided by Tamara Doering and Andre Spec. […] Cells were incubated without shaking for 48 hours at 35° C. and cell density was measured at […]. […] Each assay was done in triplicate and all values are the average of two or more independent assays. The data are presented as the average cell density as a percent of DMSO-only treated cells. MICs are reported as the minimal concentration needed to inhibit 80% of C. neoformans growth relative to vehicle-treated controls. Another thirty-seven of the molecules are αHTs (FIG. 4), which have a third contiguous oxygen atom on the troponoid ring.

KN99α cells [5] = test: Inhibition under capsule-inducing conditions (MIC); format: cell-based; conditions: Cryptococcus neoformans; YNB-02+1% DMSO, 37° C. with 5% CO2, 48 hours
Procedure: KN99α cells were grown overnight in YPD at 30° C. with shaking. […] Capsule was visualized using bright-field microscopy as a halo surrounding the yeast cell through India ink exclusion. The screening was conducted in the nutrient-limited media YNB-02 at 35° C. to mimic some aspects of the growth conditions in humans. […] The untreated cells grown in YNB-02 were able to elaborate the capsule (FIG. 7D) compared to cells grown overnight in YPD at 30° C. (FIG. 7C).

[6] = test system: C. neoformans var grubii, KN99; test: Synergy (checkerboard) assay with Fluconazole or Amphotericin B; format: cell-based; conditions: in combination with either FLC or AMB
Procedure: Each assay was performed in triplicate and all values are the average of two or more independent assays. The fractional inhibitory concentration index (FICI) model is expressed as ΣFIC=FICA+FICB=MICA′/MICA+MICB′/MICB, where MICA, and MICB are the MIC values of agents A and B used alone and MICA′ and MICB′ are the MICs of agents A and B used in combination.

KN99α cells [7] = test: MIC assays of hydrolysis products of #284 and p-benzoic acid; format: cell-based, C. neoformans; conditions: dilution series 0.19-50 μM, 48 hours at 35° C.
Procedure: FIG. 6. […] Values are mean±standard deviation from three replicates.
The solution was mixed by vortexing until a prominent color change (pale yellow to dark orange) was apparent. This reaction was performed in triplicate. One aliquot of the reaction mixture was stored at room temperature, one at 35° C., and one at 40° C. After 24 hours, the reaction mixtures were neutralized with HCl.
This would release a tropothione, possibly in multiple oxidation states, as well as p-benzoic acid, any of which could potentially act as inhibitors.

[8] = YNB-02+1% DMSO, 35° C., 48 hours
[9] = 48 h, measured alone, 80% of cells inhibited relative to vehicle, run with synergy and fungicidal assays

Compound: CC(C)c1ccc(O)c(=O)c(O)c1 [Compound 46, β-thujaplicinol]
- MIC80 [1, 8]: 8 µM (≈ 1.44 µg/mL)
- MIC [1, 8]: ≤ 15 µM
- inhibition of C. neoformans growth [1]: some inhibition
- CC50 at 72 h [2]: 23 µM
- inhibition of C. neoformans growth (KN99α cells [3]): almost completely inhibited

Compound: OC(Cn1cncn1)(Cn1cncn1)c1ccc(F)cc1F [FLC, Fluconazole, reference compound]
- MIC [1, 9]: 3 µM
- MIC ([1]; measured alone, 80% of cells inhibited relative to vehicle, run with synergy and fungicidal assays): 0.9 µg/mL
- cell growth on YPD plates after drug exposure (C. neoformans): Significant cell growth

Compound: O=c1ccccc(Br)c1O [Compound 54, 3-bromotropolone]
- MIC [1, 9]: 12 µM
- MIC80 [1, 8]: 7 µM (≈ 1.41 µg/mL)
- CC50 at 72 h [2]: 95 µM
- MIC [4]: 6 to 12 µM (≈ 1.21 to 2.41 µg/mL)
- MIC (KN99α cells [5]): 6 to 12 µM (≈ 1.21 to 2.41 µg/mL)
- FIC index [6]: 2
- FIC value [6]: 1

Compound: C[C@@H]1[C@H](O)[C@@H](C)/C=C/C=C/C=C/C=C/C=C/C=C/C=C/[C@H](O[C@@H]2O[C@H](C)[C@@H](O)[C@H](N)[C@@H]2O)C[C@@H]2O[C@](O)(C[C@@H](O)C[C@@H](O)[C@H](O)CC[C@@H](O)C[C@@H](O)CC(=O)O[C@H]1C)C[C@H](O)[C@H]2C(=O)O [AMB, Amphotericin B]
- cell growth on YPD plates after drug exposure (C. neoformans): no cell growth

Compound: CC(C)c1cccc(=O)c(O)c1 [Compound 47, β-thujaplicin]
- MIC80 [1, 8]: 21 µM (≈ 3.45 µg/mL)
- inhibition of C. neoformans growth [1]: some inhibition
- CC50 at 72 h [2]: 66.5 µM
- inhibition of C. neoformans growth (KN99α cells [3]): almost completely inhibited

Compound: p-benzoic acid
- MIC (KN99α cells [7]): > 50 µM
